Assay results from ChEMBL document CHEMBL5154879, “Induction of Genes Implicated in Stress Response and Autophagy by a Novel Quinolin-8-yl-nicotinamide QN523 in Pancreatic Cancer” (J Med Chem, 2022).

Tests used:
Format in all cases: functional, cell-based
[1] = system: MIA PaCa-2; assay: Cytotoxicity against human MIA PaCa-2 cells assessed as inhibition of cell growth incubated for 72 hrs by MTT assay; settings: MIA PaCa-2, 72 h
[2] = system: PANC-1; assay: Cytotoxicity against human PANC-1 cells assessed as inhibition of cell growth incubated for 72 hrs by MTT assay; settings: PANC-1, 72 h
[3] = system: BXPC-3; assay: Cytotoxicity against human BXPC-3 cells assessed as inhibition of cell growth incubated for 72 hrs by MTT assay; settings: BXPC-3, 72 h

SMILES | IC50 [1] | IC50 [2] | IC50 [3]
O=C(Nc1cc(F)cc2cccnc12)c1cnccn1 | 0.13 µM | 0.67 µM | > 10 µM
CC(C)(C)OC(=O)NCCOc1cc(NC(=O)c2ncccn2)c2ncccc2c1 | > 10 µM | > 10 µM | > 10 µM
O=C(Nc1ccc(Br)c2cccnc12)c1cnccn1 | 0.75 µM | 7 µM | 7.5 µM
O=C(Nc1cccc2cccnc12)c1ncc2ccccc2n1 | > 10 µM | > 10 µM | > 10 µM
Cc1cnc(C(=O)Nc2cc(OCCC3CCNCC3)cc3cccnc23)cn1 | 6.17 µM | > 10 µM | 8.33 µM
Cc1cnc(C(=O)Nc2cc(Cl)cc3cccnc23)cn1 | 1.5 µM | 1.77 µM | 5.2 µM
O=C(Nc1cccc2cccnc12)c1cccnn1 | 8.5 µM | > 10 µM | > 10 µM
COc1cc(NC(=O)c2cnc(C)cn2)c2ncccc2c1 | 0.27 µM | 0.8 µM | 6.7 µM
O=C(Nc1cccc2cccnc12)c1ccc(F)nc1 | > 10 µM | > 10 µM | > 10 µM
CN(C)CCOc1cc(NC(=O)c2cnccn2)c2ncccc2c1 | > 10 µM | > 10 µM | > 10 µM
O=C(Nc1cc(OCCN2CCCCC2)cc2cccnc12)c1cnccn1 | > 10 µM | > 10 µM | > 10 µM
NCCOc1cc(NC(=O)c2cnccn2)c2ncccc2c1 | > 10 µM | > 10 µM | > 10 µM
O=C(Nc1cccc2cccnc12)c1ccc(Br)nc1 | > 10 µM | > 10 µM | > 10 µM
CC(C)(C)OC(=O)N1CCC(CCOc2cc(NC(=O)c3ncccn3)c3ncccc3c2)CC1 | > 10 µM | > 10 µM | > 10 µM
Cc1ccc(C(=O)Nc2cccc3cccnc23)cn1 | > 10 µM | > 10 µM | > 10 µM
COc1cc(NC(=O)c2cnccn2)c2ncccc2c1 | 0.47 µM | 2.17 µM | 0.47 µM
Cc1cnc(C(=O)Nc2cccc3ccc(C)nc23)cn1 | > 10 µM | > 10 µM | > 10 µM
O=C(Nc1cccc2cccnc12)c1ncccn1 | 0.33 µM | > 10 µM | > 10 µM
O=C(Nc1cc(Cl)cc2cccnc12)c1ncccn1 | 0.8 µM | 4.67 µM | > 10 µM
Cc1cnc(C(=O)Nc2cc(OCCC3CCN(C(=O)OC(C)(C)C)CC3)cc3cccnc23)cn1 | 9 µM | 9.67 µM | 9.33 µM
O=C(Nc1cc(F)cc2cccnc12)c1ncccn1 | 0.3 µM | 5.3 µM | > 10 µM
Cc1cnc(C(=O)Nc2ccc(Br)c3cccnc23)cn1 | 2.2 µM | 6.8 µM | > 10 µM
Cc1cnc(C(=O)Nc2cc(OCCNC(=O)OC(C)(C)C)cc3cccnc23)cn1 | 0.67 µM | 2.17 µM | 3.67 µM
